7 compounds from ChEMBL document CHEMBL5465560, “Selectivity Literature for EUbOPEN Chemogenomic Library” (2024) can be followed below.

In test [1] the target is T1, Ephrin type-A receptor 8 (Homo sapiens) (UniProt P29322).
T1 sequence (whole entry): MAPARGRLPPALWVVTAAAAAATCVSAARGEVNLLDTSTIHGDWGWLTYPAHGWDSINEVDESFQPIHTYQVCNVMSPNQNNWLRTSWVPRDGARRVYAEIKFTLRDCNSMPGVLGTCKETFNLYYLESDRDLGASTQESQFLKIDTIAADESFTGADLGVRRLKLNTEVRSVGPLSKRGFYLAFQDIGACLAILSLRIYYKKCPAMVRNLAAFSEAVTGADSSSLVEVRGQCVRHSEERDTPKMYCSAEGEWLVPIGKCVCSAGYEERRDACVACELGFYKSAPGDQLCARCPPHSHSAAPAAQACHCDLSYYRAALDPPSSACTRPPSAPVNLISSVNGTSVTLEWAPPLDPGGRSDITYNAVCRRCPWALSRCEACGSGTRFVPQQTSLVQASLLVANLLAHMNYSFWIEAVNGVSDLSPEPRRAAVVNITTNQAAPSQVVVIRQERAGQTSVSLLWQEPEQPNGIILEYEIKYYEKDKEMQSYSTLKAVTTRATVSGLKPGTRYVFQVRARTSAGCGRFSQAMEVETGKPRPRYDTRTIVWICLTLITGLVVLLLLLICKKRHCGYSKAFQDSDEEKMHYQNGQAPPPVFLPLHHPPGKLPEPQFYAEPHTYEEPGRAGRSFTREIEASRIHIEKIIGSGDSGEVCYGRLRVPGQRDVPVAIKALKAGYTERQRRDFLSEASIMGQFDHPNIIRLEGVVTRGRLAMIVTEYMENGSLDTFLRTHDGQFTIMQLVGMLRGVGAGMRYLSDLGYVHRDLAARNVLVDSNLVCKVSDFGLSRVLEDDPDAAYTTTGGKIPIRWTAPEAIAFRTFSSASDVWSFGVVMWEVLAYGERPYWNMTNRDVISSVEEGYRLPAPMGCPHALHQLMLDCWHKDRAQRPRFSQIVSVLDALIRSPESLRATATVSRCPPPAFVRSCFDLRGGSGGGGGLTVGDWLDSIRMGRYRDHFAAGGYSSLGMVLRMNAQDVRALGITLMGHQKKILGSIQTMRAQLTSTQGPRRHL
The test is described as follows: Selectivity interaction (KinomeScan (DiscoverX)) EUB0000229b EPHA8. Particulars: at 10 µM.

In test [2] the target is Homeodomain-interacting protein kinase 1 (Homo sapiens, UniProt Q86Z02). The test is described as follows: Selectivity interaction (Kinase panel (Invitrogen)) EUB0000639a HIPK1. To be noted: at 200 nM.
Chain of Homeodomain-interacting protein kinase 1 (Q86Z02 whole entry, looked up): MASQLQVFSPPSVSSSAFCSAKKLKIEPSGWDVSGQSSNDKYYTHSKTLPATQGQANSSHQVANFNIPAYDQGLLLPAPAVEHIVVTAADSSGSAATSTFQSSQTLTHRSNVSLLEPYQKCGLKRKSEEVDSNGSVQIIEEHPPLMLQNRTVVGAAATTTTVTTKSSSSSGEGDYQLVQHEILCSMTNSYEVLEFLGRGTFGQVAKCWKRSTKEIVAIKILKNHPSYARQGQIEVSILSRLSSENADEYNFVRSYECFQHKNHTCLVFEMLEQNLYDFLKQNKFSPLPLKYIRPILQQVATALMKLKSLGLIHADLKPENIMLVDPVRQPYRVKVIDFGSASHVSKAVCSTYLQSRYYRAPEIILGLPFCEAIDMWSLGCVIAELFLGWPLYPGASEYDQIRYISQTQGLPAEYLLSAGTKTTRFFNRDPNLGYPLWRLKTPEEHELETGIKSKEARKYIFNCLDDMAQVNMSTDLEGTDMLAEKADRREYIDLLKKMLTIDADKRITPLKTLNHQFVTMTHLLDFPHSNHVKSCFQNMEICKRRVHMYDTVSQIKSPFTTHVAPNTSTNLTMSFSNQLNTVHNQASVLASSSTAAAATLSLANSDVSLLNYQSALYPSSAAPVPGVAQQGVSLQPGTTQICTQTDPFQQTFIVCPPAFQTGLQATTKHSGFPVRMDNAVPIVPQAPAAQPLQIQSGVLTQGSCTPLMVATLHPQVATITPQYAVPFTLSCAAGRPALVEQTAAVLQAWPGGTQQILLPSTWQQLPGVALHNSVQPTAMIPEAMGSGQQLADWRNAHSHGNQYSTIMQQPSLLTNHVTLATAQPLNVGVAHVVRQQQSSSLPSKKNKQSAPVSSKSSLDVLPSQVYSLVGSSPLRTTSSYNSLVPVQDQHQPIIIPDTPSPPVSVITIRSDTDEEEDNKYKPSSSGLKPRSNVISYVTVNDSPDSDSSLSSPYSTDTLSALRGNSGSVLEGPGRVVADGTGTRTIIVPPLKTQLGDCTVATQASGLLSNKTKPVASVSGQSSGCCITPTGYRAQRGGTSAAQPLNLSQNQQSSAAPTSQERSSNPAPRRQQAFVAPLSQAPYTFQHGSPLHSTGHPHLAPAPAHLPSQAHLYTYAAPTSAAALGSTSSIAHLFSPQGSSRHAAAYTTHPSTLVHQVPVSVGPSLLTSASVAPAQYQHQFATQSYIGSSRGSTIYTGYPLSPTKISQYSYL
Test [3] deals with Insulin-like growth factor 1 receptor (Homo sapiens, UniProt P08069). The test is described as follows: Selectivity interaction (Millipore kinase profiler) EUB0000124b IGF1R. To be noted: at 10 µM.
Chain of Insulin-like growth factor 1 receptor (P08069 31-736 limits assumed): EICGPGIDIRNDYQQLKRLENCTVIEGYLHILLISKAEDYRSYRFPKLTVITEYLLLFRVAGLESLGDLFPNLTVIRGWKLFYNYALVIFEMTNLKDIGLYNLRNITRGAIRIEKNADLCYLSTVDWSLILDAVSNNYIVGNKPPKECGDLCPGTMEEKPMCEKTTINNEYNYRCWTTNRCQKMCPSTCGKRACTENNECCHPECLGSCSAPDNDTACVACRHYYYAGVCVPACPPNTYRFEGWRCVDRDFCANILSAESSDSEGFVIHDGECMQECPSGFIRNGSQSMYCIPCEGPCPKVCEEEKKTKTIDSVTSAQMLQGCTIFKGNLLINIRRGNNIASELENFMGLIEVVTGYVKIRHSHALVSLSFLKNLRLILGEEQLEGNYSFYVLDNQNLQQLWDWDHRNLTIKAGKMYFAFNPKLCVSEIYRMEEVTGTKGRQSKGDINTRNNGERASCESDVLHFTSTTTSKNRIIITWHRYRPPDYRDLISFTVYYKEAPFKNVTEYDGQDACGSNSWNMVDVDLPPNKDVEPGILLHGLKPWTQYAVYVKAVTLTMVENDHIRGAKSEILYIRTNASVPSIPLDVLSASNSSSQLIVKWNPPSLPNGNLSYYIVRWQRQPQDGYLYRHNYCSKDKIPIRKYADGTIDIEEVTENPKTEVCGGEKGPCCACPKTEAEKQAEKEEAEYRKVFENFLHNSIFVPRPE
Chain of Insulin-like growth factor 1 receptor (P08069 741-1367 limits assumed): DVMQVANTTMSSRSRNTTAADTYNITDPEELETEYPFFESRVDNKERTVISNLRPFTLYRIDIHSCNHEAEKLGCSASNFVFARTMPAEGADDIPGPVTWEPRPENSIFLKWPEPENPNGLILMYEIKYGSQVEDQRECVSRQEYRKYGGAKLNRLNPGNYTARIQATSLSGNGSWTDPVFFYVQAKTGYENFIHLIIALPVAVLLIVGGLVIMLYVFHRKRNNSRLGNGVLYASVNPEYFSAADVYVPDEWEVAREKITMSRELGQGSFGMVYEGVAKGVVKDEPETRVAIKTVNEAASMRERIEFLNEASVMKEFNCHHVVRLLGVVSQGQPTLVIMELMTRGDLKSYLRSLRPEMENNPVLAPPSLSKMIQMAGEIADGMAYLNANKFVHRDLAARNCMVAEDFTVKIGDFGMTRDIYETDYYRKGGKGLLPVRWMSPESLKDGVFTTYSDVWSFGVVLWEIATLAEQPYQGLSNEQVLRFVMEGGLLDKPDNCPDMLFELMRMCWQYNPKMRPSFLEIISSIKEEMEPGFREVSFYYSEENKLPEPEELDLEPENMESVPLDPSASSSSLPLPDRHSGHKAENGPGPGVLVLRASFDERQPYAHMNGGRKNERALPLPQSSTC
For test [4], the target named is T2, Mitogen-activated protein kinase kinase kinase 2 (Homo sapiens) (UniProt Q9Y2U5).
T2 sequence (whole entry): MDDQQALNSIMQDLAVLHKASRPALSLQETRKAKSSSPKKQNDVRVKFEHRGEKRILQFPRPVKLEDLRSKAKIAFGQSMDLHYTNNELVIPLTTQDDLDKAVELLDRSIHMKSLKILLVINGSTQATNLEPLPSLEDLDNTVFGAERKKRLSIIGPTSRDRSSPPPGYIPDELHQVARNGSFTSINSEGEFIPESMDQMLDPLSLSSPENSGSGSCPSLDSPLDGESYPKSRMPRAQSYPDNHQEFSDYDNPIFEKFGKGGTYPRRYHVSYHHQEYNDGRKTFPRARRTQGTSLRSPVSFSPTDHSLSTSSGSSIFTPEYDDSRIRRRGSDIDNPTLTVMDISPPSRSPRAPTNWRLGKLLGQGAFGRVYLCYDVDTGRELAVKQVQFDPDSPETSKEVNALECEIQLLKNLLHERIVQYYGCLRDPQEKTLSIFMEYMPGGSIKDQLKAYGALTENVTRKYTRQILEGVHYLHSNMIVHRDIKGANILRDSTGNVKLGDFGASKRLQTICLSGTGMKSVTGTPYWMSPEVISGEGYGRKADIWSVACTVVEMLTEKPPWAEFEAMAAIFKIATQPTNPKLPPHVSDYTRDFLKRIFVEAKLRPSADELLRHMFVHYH
The test is described as follows: Selectivity interaction (ProQinase) EUB0000171b MAP3K2.

Test [5] addresses SWI/SNF-related matrix-associated actin-dependent regulator of chromatin subfamily A member 4 (Homo sapiens) (UniProt P51532). The test is described as follows: Selectivity interaction (Bromodomain panel (DSF asssay)) EUB0000270b SMARCA4.
The target in test [6] is Cyclin-dependent kinase 14 (Homo sapiens) (UniProt O94921). The test is described as follows: Selectivity interaction (KinomeScan (DiscoverX)) EUB0000092b CDK14. Particulars: at 10 µM.
Chain of Cyclin-dependent kinase 14 (Homo sapiens) (O94921 whole entry): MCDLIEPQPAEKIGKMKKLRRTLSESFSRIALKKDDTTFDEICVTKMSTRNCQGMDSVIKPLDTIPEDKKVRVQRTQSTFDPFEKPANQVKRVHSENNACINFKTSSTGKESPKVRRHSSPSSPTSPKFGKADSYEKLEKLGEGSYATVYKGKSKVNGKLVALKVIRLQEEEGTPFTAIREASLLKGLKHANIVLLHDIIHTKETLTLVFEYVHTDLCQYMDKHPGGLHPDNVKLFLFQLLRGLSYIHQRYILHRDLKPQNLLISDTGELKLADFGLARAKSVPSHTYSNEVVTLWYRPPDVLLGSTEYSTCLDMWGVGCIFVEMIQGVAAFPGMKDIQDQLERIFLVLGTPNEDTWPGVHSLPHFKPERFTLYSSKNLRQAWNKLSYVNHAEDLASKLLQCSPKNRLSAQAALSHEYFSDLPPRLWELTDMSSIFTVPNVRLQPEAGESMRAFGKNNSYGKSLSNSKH
In test [7] the target is T3, Aurora kinase C (Homo sapiens) (UniProt Q9UQB9).
T3 sequence (whole entry): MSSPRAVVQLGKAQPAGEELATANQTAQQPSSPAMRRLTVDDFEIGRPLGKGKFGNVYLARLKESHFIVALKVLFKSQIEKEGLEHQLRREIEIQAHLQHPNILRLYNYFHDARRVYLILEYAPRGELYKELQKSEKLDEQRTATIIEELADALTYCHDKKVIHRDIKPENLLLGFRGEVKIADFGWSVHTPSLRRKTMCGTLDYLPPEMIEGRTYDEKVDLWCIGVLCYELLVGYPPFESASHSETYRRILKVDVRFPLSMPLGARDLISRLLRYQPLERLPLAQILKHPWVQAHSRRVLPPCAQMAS
The test is described as follows: Selectivity interaction (KinomeScan (DiscoverX)) EUB0000092b AURKC. To be noted: at 10 µM.

Another test addresses Ephrin type-A receptor 4 (Homo sapiens, UniProt P54764). The test is described as follows: Selectivity interaction (KinomeScan (DiscoverX)) EUB0000045b EPHA4.

SMILES strings stand for the structures.

Chain of Ephrin type-A receptor 4 (P54764 whole entry): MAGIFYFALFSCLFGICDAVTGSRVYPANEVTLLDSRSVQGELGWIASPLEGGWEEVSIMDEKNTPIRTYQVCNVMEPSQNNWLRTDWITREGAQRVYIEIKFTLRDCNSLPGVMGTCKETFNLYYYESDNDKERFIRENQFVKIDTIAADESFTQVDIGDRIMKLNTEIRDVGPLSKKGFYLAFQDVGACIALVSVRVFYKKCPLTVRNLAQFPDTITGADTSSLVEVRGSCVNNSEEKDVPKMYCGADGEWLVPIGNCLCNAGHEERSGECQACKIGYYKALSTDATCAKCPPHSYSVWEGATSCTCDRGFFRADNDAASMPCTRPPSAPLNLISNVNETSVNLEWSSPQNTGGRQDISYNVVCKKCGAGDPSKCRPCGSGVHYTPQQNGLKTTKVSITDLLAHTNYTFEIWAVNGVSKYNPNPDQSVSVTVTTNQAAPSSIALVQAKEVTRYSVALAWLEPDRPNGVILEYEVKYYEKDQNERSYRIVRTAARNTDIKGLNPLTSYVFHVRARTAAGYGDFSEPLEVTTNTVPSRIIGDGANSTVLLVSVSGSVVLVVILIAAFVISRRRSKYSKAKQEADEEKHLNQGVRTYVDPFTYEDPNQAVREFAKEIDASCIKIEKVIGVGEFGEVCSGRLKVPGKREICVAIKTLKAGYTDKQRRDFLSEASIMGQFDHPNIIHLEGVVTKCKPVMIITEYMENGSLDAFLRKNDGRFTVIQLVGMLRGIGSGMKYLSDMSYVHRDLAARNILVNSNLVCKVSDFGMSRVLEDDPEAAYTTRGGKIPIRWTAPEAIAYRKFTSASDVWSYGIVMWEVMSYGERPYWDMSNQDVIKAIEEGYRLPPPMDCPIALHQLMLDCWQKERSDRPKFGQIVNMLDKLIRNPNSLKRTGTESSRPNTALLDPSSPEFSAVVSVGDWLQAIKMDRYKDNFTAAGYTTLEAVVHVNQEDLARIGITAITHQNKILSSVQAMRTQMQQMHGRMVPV

Compound `COc1cc(N(C)c2ccnc3ccc(C(F)(F)F)cc23)cc(OC)c1OC` showed a % binding in test [1] of 94%. In test [2], `CC[C@@H]1[C@H](F)C(=O)N[C@@H]1COc1nccc2cc(C(N)=O)c(OC)cc12` [ZIMLOVISERTIB] came in with a % of inhibition of 7.68%.

Regarding `CC(=O)Nc1cccc(-n2c(=O)n(C3CC3)c(=O)c3c(Nc4ccc(I)cc4F)n(C)c(=O)c(C)c32)c1`, the % of control in test [3] was determined as 95%. In the case of `C=CC(=O)Nc1cccc(C(=O)Nc2ccc(Nc3cc(-c4[nH]c(SC)nc4C)ccn3)cc2)c1`, the figures for the % of control in test [4] (at 1 µM) and in test [4] (at 5 µM) were 99% and 88%, respectively.

For the compound `Cc1cc(CN)cc(C)c1-c1ncn(C)c1-c1cncn1C`, in test [5], the dTM is -1.35 K.

`CCC(=O)N1CCN(c2ccc(-n3c(=O)ccc4cnc5ccc(-c6cnc7ccccc7c6)cc5c43)cc2C(F)(F)F)CC1`: the results for the % of control in test [6] and in test [7] were 99% and 91%, respectively. `C=CC(=O)Nc1cc(-n2c(=O)ccc3cnc4ccc(-c5ccc(NS(C)(=O)=O)cc5)cc4c32)ccc1C`: the % of control on Ephrin type-A receptor 4 (at 1 µM) came to 89%; on Ephrin type-A receptor 4 (at 10 µM) it was 100%.
